Laboratory results reported in patent US8242159B2, “1,3-dihydro-5-isobenzofurancarbonitrile derivatives and pharmaceutical composition thereof for the treatment of premature ejaculation” (Dong-A Pharmaceutical. Co., Ltd, priority 2007, dated 2012).

Tests used:
Sprague-Dawley (SD) rats = assay: Acute toxicity test, single dose, mortality; assay type: in vivo, rat; set-up: unit not given here
Text: The present derivatives and citalopram were individually administered orally and intra-venously to SD rats at a single dose.

[1] = Determination of half-lives of the compounds in rats (oral, plasma HPLC); assay type: in vivo; conditions: rat, male Sprague-Dawley rats, 10 mg/kg (text also says 5 mg/kg), 0.5% methylcellulose
Method: The half-lives of present compounds were determined as follows. Each compound was administered orally to male Sprague-Dawley rats weighing approximately 270 g at a dose of 10 mg/kg. 5 mg/kg of each compound was suspended in 0.5% methyl-cellulose and then administered to rats. Blood samples were collected 0.017, 0.083, 0.25, 0.5, 1, 2, 3, 5, 7 and 24 hours after administration, and centrifuged at 1,000 rpm for 3 min to separate plasma. The concentration of each compound in plasma was determined using high performance liquid chromatography, which was performed with a mobile phase of 10 mM ammonium formate (pH 3.0) and acetonitrile (50:50), an […] column (21×100 mm, 3 μm) and a flow rate of 0.2 ml/min.

[2] = tested on: Salmonella typhimurium TA98, 100, 1535, 1537, E. coli WP2 uvrA; conditions: reported 'in the same test'; which test is not specified; cited from earlier work
[3] = biological target: hERG (human Ether-a-go-go Related Gene) (Homo sapiens, UniProt Q12809); assay: Cardiotoxicity test, hERG assay (MDS Pharma)
Chain of hERG (human Ether-a-go-go Related Gene) (Q12809 whole entry): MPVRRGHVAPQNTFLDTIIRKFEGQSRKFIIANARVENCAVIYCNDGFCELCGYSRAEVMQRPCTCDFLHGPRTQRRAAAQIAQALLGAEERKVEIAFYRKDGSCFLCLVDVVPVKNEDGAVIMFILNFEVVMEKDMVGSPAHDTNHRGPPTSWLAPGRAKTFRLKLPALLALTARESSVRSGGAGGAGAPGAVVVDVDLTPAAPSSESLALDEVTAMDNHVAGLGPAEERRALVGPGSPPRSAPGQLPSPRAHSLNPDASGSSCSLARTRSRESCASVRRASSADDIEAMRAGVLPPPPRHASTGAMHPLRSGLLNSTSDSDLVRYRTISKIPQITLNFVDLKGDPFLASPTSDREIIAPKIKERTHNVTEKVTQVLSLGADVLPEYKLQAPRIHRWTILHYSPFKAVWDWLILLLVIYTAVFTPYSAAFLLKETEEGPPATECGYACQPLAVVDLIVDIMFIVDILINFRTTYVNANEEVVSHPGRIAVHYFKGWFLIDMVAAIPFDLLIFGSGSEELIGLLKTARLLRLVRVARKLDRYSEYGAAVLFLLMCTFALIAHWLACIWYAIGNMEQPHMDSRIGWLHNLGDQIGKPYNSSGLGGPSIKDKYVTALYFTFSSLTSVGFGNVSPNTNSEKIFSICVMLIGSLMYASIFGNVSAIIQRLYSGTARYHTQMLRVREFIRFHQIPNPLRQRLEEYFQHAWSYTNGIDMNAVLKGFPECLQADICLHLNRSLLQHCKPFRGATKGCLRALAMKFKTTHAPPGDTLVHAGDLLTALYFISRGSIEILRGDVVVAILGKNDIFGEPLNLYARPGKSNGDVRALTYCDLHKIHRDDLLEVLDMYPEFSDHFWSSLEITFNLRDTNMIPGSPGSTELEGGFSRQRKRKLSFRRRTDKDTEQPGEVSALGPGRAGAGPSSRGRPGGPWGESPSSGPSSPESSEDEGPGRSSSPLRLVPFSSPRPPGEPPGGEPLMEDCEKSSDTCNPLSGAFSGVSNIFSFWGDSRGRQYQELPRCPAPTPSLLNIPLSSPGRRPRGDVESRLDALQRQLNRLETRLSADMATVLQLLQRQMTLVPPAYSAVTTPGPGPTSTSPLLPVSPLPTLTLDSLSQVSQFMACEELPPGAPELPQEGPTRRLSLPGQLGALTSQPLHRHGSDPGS
Text: To evaluate the safety of the present derivatives in comparison with control drug, conducted was hERG (human Ether-a-go-go Related Gene) assay which is a representative test of safety medical test. This test was requested to trial institute MDS Pharma., which conducted this test.

[4] = tested on: Salmonella typhimurium TA98, 100, 1535, 1537, E. coli WP2 uvrA; assay: Mutagenicity test: Ames test; assay type: cell-based; conditions: 8, 40, 200, 1000, 2500, 5000 μg/plate, presence/absence of a metabolic activation system
Method: (§1) To evaluate the safety of the present derivatives, mutagenicity test was conducted. Ames test and chromosome aberration test were conducted with the examples 2, 35, 40 and 45.

[5] = tested on: cellular uptake of norepinephrine; assay: Cellular reuptake assay, [3H]norepinephrine; assay type: cell-based; conditions: 10 min, MDCK cell line
Method: (§2) First, the effects of the present compounds on cellular uptake of dopamine, norepinephrine and serotonin were evaluated with human-derived CHO-1, MDCK and HEK-293 cell lines. Each cell line was dosed with 10^−5 μM to 10^4 μM of the compounds of Examples 2, 35, 40 and 45, and then incubated with [^3H]dopamine, [^3H]norepinephrine and [^3H]serotonin in buffer. After 10 min, the amount of each neurotransmitter taken up into cells was determined by counting radioactivity using a liquid scintillation counter (LSC).

[6] = tested on: cellular uptake of serotonin; assay: Cellular reuptake assay, [3H]serotonin; assay type: cell-based; conditions: Homo sapiens, HEK293, 10 min, HEK-293 cell line
Method: as §2

5-HT transporter = biological target: T1, 5-HT transporter (Homo sapiens, UniProt P31645); assay: Radioligand competitive binding assay, [3H]Paroxetine; conditions: human-derived recombinant HEK-293 cells
T1 construct: expressed in transfected cells; host or cells: HEK-293 cells
T1 sequence (P31645 whole entry): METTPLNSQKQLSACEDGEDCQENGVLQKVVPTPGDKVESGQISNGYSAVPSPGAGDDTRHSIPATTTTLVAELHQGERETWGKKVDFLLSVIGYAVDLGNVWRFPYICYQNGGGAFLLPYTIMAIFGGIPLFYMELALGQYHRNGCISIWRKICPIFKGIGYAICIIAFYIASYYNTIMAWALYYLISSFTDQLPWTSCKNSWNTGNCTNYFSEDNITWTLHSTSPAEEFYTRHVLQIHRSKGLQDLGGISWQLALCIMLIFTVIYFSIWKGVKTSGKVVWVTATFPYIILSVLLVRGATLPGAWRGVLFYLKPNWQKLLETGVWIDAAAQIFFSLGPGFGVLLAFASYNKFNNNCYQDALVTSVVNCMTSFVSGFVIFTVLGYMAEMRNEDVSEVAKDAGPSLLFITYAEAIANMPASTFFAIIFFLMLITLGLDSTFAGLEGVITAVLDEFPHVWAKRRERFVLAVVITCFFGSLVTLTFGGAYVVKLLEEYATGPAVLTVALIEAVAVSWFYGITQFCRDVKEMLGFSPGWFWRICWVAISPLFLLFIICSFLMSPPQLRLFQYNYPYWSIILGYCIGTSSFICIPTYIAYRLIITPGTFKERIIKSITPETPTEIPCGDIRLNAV
Method: (§3) In addition, ligand binding to 5HT1A, 5-HT1B and 5-HT2C receptors and 5-HT transporter was evaluated with human-derived recombinant CHO cells, Wistar rat-derived cerebral cortical cells, human-derived recombinant CHO-K1 cells, and human-derived recombinant HEK-293 cells. Each cell line was dosed with 10^−5 μM to 10^4 μM of the compounds of Examples 2, 35, 40 and 45, and then incubated with a radio-labeled ligand for competitive binding. Ligands used were […], [^125I]Cyanopindolol, [^3H]Mesulergine and [^3H]Paroxetine, respectively. The competitive binding assay was carried out in 50 mM Tris-HCl buffer at 25° C. or 37° C., for 60 to 90 min.

Male Wistar rats = assay: p-PCA-induced ejaculation in anesthetized rats (ejaculation-delaying effect); assay type: in vivo, rat; conditions: for Ratio: Number of responding animals/total animal number: 50 mg/kg oral in 1% HPMC, p-PCA 5 mg/kg i.p. 80 min later, observed 30 min; for Latency: Time to display the ejaculatory response: 50 mg/kg oral, p-PCA 5 mg/kg i.p., mean ± standard deviation of responding rats
How it was run: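 Male Wistar rats (240-260 g) received compound orally at 50 mg/kg in 1% HPMC, were anesthetized 60 min later, and 20 min after that were given p-PCA 5 mg/kg i.p. to induce ejaculation. Scored as rhythmic bulbocavernosus contraction plus semen discharge, with six or more animals per compound versus vehicle.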

[7] = tested on: cellular uptake of dopamine; assay: Cellular reuptake assay, [3H]dopamine; assay type: cell-based; conditions: 10 min, CHO-1 cell line
Method: as §2

5-HT1B receptor = biological target: T2, 5-HT1B receptor (Rattus norvegicus, UniProt P28564); assay: Radioligand competitive binding assay, [125I]Cyanopindolol; conditions: Wistar rat-derived cerebral cortical cells
T2 construct: Wistar rat-derived cerebral cortical cells; from tissue; host or cells: Wistar rat cerebral cortex
T2 sequence (P28564 whole entry): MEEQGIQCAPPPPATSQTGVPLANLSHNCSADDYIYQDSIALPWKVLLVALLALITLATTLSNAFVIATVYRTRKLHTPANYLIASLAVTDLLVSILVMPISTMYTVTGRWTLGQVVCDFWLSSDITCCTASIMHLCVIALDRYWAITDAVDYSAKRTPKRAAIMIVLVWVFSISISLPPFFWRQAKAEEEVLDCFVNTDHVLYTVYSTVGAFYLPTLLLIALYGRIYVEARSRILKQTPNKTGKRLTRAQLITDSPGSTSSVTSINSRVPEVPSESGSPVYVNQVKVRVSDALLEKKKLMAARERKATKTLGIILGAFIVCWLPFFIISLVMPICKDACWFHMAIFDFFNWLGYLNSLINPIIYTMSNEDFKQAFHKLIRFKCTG
Method: as §3

5HT1A receptor = biological target: T3, 5HT1A receptor (Homo sapiens, UniProt P08908); assay: Radioligand competitive binding assay; conditions: human-derived recombinant CHO cells
T3 construct: expressed in transfected cells; host or cells: CHO cells
T3 sequence (P08908 1-422): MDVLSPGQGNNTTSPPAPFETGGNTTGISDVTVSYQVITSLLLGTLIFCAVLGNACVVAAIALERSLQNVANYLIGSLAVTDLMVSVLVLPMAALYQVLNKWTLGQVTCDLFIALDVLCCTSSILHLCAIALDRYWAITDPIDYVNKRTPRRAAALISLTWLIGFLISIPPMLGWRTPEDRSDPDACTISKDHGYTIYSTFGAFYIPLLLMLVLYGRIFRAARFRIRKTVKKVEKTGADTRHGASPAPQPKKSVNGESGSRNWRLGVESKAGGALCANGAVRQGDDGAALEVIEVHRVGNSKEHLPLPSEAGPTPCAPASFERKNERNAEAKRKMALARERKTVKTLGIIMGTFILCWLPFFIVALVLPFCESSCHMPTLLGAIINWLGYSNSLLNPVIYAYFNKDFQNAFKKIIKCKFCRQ
Method: as §3

[8] = tested on: CHL (Chinese Hamster Lung) cell; assay: Mutagenicity test: chromosome aberration test; assay type: cell-based; conditions: 75, 150, 300 μg/ml with metabolic activation; 20, 40, 80 μg/ml without
Method: as §1

5-HT2C receptor = biological target: T4, 5-HT2C receptor (Homo sapiens, UniProt P28335); assay: Radioligand competitive binding assay, [3H]Mesulergine; conditions: human-derived recombinant CHO-K1 cells
T4 construct: expressed in transfected cells; host or cells: CHO-K1 cells
T4 sequence (P28335 33-458): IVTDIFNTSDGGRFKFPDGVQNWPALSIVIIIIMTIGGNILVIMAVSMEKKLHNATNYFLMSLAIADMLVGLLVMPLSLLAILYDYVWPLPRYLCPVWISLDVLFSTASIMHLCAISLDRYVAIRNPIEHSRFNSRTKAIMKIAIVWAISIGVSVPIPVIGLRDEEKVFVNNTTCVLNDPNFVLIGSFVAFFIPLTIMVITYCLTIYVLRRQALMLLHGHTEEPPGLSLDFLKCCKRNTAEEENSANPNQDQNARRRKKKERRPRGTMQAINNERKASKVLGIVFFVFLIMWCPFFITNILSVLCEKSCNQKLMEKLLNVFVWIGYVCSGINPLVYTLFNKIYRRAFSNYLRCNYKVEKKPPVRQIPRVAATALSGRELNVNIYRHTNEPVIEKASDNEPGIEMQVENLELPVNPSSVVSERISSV
Method: as §3

SMILES	minimum lethal dose (Sprague-Dawley (SD) rats; Intravenously, female SD rats)	minimum lethal dose (Sprague-Dawley (SD) rats; Intravenously, male SD rats)	minimum lethal dose (Sprague-Dawley (SD) rats; Orally, female SD rats)	minimum lethal dose (Sprague-Dawley (SD) rats; Orally, male SD rats)	Tmax [1] [min]	half-life [1] [min]	mutagenicity test result as reported [2]	IC50 [3] [µM]	Ames test result [4]	IC50 [5] [µM]	IC50 [6] [µM]	IC50 (5-HT transporter) [µM]	Ratio: Number of responding animals/total animal number (Male Wistar rats)	IC50 [7] [µM]	IC50 (5-HT1B receptor) [µM]	IC50 (5HT1A receptor) [µM]	chromosome aberration test result [8]	IC50 (5-HT2C receptor) [µM]	Latency: Time to display the ejaculatory response (Male Wistar rats) [s]
CN(C)CCCC1(c2ccc(F)cc2)OCc2cc(C#N)ccc21 (stereo not drawn) [Citalopram, reference compound]	30	30	650	650	19.8	194	positive	–	–	–	–	–	–	–	–	–	–	–	–
CN(C)CCCC1(c2ccc(N(C)C)cc2)OCc2cc(C#N)ccc21.O=C(O)C(=O)O (stereo not drawn) [Ex. 35, 1-(4-dimethylaminophenyl)-1-{3-(dimethylamino)propyl}-1,3-dihydro-5-isobenzofurancarbonitrile oxalate]	50	50	1000	1000	15	211	–	12.2	negative	53.2	0.425	0.001	0/9	100	> 1000	1120	negative	898	–
CN(C)CCCC1(c2cccs2)OCc2cc(C#N)ccc21.O=C(O)C(=O)O (stereo not drawn) [Ex. 40, 1-{3-(dimethylamino)propyl}-1-(2-thienyl)-1,3-dihydro-5-isobenzofurancarbonitrile oxalate]	50	50	800	800	15	75.6	–	8.7	negative	69.1	0.531	0.0125	3/9	124	> 1000	967	negative	10.1	876 ± 110
N#Cc1ccc2c(c1)COC2(CCCn1ccnc1)c1cccs1.O=C(O)C(=O)O (stereo not drawn) [Ex. 45, 1-{3-(imidazole-1-yl)propyl}-1-(2-thienyl)-1,3-dihydro-5-isobenzofurancarbonitrile oxalate]	50	50	1000	1000	15	63.6	–	10.6	negative	67.3	0.465	0.0087	2/9	94.2	> 1000	898	negative	8.88	676 ± 10
